Laboratory results reported in patent US20110152313A1 (MACQUARIE UNIVERSITY, priority 2008, published 2011).
≈ marks a conversion by molar mass, not a printed value.

Assays:
[1] = test system: new blood vessel growth from isolated rat aorta fragments; assay: rat aorta fragment vessel outgrowth (anti-angiogenic) assay in fibrin gel; format: cell-based; conditions: 120 h, read-out: Anti-Angiogenesis Activity IC50 (concentration that inhibits 50% of the new blood vessel growth); rat aorta fragments, day 5; >100 = no inhibition under the assay conditions
Experimental: A potentially non-toxic method of treating cancer is to inhibit angiogenesis. The human anti-angiogenic and therefore antiproliferative action of drugs can be assessed by many methods well known in the prior art. […] Briefly, thoracic aortas were excized from 3-9 month-old female Fischer rats, cross-sectioned at 1 mm intervals and embedded individually in 0.5 ml of a fibrin gel containing 5 μg/ml of aprotinin (to prevent fibrinolysis) in each well of a 48-well culture plate. Immediately after vessel embedding, 0.5 ml/well of medium M199, supplemented with 20% foetal calf serum, 0.1% E-aminocaproic acid, 1% L-glutamine and antibiotics, was added. Each test compound (10 mg/ml, dissolved in DMSO) was added to the medium (maximum final concentration of test compound 100 μg/ml) and each treatment was performed in six wells. Control cultures received medium containing 0.1% DMSO but without any test compound. […] Vessels were cultured at 37° C. in 5% CO2 in air for 5 days and the medium, with or without test compound, was changed on day 4. Vessel growth was quantified manually under 40× magnification on day 5, with growth being estimated as the percentage of the field (×40) around the vessel fragment that was occupied by vessel outgrowths. By counting the number of vessels formed after 5 days at three to six different concentrations (in triplicate) it is possible to determine an IC50 values for each compound compared to a positive and negative (solvent) control. The percentage inhibition (0-100%) is plotted against compound concentration and a 3-parameter sigmoidal (dose-response) curve fitted (Graphpad Prism v 4) by non-linear regression.

[2] = target: T1, RPS6KA6(Kin.Dom.2-C-terminal) (Homo sapiens, UniProt Q9UK32); assay: kinase binding screen (kinase-tagged T7 phage, qPCR), % Ctrl
T1 sequence (Q9UK32 426-683 limits assumed): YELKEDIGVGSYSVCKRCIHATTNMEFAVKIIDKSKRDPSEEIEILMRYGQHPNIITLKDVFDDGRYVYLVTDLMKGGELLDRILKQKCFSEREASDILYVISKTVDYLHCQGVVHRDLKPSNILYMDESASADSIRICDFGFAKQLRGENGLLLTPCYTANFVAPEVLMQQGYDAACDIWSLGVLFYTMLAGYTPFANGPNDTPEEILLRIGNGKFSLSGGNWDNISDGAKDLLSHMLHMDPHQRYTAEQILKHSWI
How it was run: (§1)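 Kinase-tagged T7 phage lysates were prepared in E. coli (MOI 0.4, 32° C until lysis), then exposed to ligand-bearing beads and test compound at a fixed concentration. Kinase remaining bound was eluted and measured by qPCR.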

CAMK2D = CAMK2D (Homo sapiens, UniProt Q13557); assay: as above
Sequence of CAMK2D (Q13557 whole entry): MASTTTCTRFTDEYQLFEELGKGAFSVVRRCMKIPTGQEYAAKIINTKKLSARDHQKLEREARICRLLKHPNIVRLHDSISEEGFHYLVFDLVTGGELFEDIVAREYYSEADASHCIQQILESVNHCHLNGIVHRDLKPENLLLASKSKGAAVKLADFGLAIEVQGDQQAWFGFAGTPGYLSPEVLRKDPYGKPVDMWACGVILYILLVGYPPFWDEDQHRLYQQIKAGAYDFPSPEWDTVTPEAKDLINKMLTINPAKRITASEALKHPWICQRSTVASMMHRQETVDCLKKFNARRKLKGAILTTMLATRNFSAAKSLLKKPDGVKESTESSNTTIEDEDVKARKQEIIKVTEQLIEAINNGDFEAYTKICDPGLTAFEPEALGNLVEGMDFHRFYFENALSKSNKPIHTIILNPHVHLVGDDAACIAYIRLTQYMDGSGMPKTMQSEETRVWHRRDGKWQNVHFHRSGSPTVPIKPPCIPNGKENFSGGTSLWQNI
How it was run: as §1

[3] = target: RPS6KA2(Kin.Dom.2-C-terminal) (Homo sapiens, UniProt Q15349); assay: as above
Sequence of RPS6KA2(Kin.Dom.2-C-terminal) (Q15349 415-672 limits assumed, species assumed): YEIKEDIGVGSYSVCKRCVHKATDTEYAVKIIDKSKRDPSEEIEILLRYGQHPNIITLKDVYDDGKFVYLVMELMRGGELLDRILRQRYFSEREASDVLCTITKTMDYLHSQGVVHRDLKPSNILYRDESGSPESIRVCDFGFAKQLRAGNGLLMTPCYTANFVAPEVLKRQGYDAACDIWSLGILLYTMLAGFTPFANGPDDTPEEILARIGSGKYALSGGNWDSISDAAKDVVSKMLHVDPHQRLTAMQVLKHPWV
How it was run: as §1

CAMK2A = CAMK2A (Homo sapiens, UniProt Q9UQM7); assay: as above
Sequence of CAMK2A (Q9UQM7 whole entry): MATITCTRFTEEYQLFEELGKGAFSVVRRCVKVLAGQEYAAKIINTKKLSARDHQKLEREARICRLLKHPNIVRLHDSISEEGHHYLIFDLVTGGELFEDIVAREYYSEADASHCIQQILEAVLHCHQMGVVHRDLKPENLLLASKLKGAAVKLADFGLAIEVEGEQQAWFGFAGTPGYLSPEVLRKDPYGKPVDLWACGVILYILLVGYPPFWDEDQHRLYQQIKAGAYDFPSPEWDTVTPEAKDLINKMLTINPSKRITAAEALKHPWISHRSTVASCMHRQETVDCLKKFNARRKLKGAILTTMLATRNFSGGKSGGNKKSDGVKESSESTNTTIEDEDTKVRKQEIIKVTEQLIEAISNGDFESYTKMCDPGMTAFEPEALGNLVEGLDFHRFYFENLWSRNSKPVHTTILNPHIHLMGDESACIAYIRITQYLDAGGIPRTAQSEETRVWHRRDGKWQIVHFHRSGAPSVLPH
How it was run: as §1

ZAP70 = target: T2, ZAP70 (Homo sapiens, UniProt P43403); assay: as above
T2 sequence (P43403 1-619): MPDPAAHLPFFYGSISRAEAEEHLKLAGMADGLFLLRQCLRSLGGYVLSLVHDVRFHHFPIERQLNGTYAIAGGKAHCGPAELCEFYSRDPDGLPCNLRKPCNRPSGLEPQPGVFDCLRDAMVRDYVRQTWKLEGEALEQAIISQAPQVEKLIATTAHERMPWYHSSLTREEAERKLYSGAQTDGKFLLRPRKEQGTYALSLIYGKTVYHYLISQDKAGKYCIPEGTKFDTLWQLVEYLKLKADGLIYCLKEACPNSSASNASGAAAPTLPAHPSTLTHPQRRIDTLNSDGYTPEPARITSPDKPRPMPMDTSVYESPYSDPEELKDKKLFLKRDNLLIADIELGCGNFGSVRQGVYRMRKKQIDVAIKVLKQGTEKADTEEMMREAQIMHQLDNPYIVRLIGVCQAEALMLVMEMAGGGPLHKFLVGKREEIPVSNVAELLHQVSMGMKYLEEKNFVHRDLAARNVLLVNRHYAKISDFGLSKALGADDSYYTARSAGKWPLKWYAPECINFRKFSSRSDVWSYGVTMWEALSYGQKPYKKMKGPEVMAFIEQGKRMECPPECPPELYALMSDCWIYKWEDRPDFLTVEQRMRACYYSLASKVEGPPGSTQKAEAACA
How it was run: as §1

BMPR1B = BMPR1B (Homo sapiens, UniProt O00238); assay: as above
Sequence of BMPR1B (O00238 14-502): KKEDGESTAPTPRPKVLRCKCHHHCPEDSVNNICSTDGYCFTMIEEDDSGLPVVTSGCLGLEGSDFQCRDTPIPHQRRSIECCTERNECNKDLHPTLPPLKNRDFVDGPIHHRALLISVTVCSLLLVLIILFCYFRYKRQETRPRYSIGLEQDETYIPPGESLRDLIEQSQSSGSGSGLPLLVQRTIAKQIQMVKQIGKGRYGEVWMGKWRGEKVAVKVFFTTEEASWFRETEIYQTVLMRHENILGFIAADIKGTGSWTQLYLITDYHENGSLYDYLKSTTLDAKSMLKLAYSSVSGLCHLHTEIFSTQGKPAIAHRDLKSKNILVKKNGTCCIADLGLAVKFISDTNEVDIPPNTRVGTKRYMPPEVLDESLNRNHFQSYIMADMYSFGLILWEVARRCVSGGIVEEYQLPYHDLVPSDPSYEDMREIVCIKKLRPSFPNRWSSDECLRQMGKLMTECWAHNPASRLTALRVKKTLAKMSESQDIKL
How it was run: as §1

DYRK1A = DYRK1A (Homo sapiens, UniProt Q13627); assay: kinase binding constant, 11-point dose response (T7 phage, qPCR); conditions: >30 = no inhibition at highest concentration tested
Experimental: Kinase inhibition studies were performed by methods well known in the prior art (Fabian, M. A. et al. Nat. Biotechnol. 2005, 23, 329). Briefly, kinase-tagged T7 phage strains were prepared in an E. coli host derived from the BL21 strain. E. coli were grown to log-phase and infected with T7 phage and incubated with shaking at 32° C. until lysis. The lysates were centrifuged and filtered to remove cell debris. […] The liganded beads were blocked with excess biotin and washed with blocking buffer (SeaBlock (Pierce); 1% BSA, 0.05% Tween 20, 1 mM DTT) to remove unbound ligand and to reduce non-specific binding. […] All reactions were performed in polystyrene 96-well plates in a final volume of 0.135 ml. […] The kinase concentration in the eluates was measured by qPCR.
An 11-point 3-fold serial dilution of each test compound (from 30 μM to 0.5 nM) was prepared in 100% DMSO at 100× final test concentration and subsequently diluted to 1× in the assay (final DMSO concentration=1%). Binding constants (KDS) were calculated with a standard dose-response curve using a 5-point sigmoidal (Hill) equation.

Row | Structure (SMILES) | IC50 [1] | remaining activity at 1 µM [2] | remaining activity at 10 µM ([2]; 10 μM) | remaining activity at 1 µM (CAMK2D) | remaining activity at 10 µM (CAMK2D; 10 μM) | remaining activity at 1 µM [3] | remaining activity at 10 µM ([3]; 10 μM) | remaining activity at 1 µM (CAMK2A) | remaining activity at 10 µM (CAMK2A; 10 μM) | remaining activity at 1 µM (ZAP70) | remaining activity at 10 µM (ZAP70; 10 μM) | remaining activity at 1 µM (BMPR1B) | remaining activity at 10 µM (BMPR1B; 10 μM) | Kd (DYRK1A)
1 | Nc1nc2c(-c3cc(Br)c(Br)[nH]3)nccc2[nH]1 [Ageladine A, ageladine A, reference compound] | 25 µg/mL (≈ 70 µM) | 51% | 34% | 100% | 82% | 42% | 25% | 100% | 97% | 81% | 65% | 100% | 78% | 
2 | Nc1nc2c(-c3ccccn3)nccc2[nH]1 [drawing 35, 4-(pyrid-2-yl)-1H-imidazo[4,5-c]pyridin-2-amine] |  | 49% |  | 41% |  | 68% |  | 100% |  | 54% |  | 85% |  | 290 nM
3 | Nc1nc2c(-c3cnc4ccccc4c3)nccc2[nH]1 [drawing 36, 4-(quinolin-3-yl)-1H-imidazo[4,5-c]pyridin-2-amine] |  | 100% |  | 100% |  | 100% |  | 100% |  | 94% |  | 0% |  | 300 nM
